This assay concerns the target HPK1 (MAP4K1) (Homo sapiens, UniProt Q92918). As to the kind of experiment: FRET Assay for HPK1 (MAP4K1): one step binding assay, displacement of labeled tracer. The settings on record: for inhibition at 1 µM: 1 μM compound; for inhibition at 1 µM / inhibition at 10 µM: FRET ratio 665/620, percent of control; for inhibition at 10 µM: 10 μM compound; for IC50: dose response curve, nonlinear regression. The procedure, abridged: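 Percent inhibition at 1.0 and 10.0 μM and IC50 by nonlinear regression were derived from loss of FRET signal versus control. The signal runs from Eu-anti-GST antibody (4 nM) bound to 10 nM HPK1 kinase to Alexa Fluor 647 Kinase Tracer 222 (20 nM), added after a 15-min on-ice compound pre-incubation. Binding then proceeded 1 h at room temperature in HEPES pH 7.5 buffer with 10 mM MgCl2, 1 mM EGTA, 0.01% Brij-35 and 3% DMSO.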

Where only a bound is given, the exact number is not on record here.

Chain of HPK1 (MAP4K1) (Q92918 whole entry): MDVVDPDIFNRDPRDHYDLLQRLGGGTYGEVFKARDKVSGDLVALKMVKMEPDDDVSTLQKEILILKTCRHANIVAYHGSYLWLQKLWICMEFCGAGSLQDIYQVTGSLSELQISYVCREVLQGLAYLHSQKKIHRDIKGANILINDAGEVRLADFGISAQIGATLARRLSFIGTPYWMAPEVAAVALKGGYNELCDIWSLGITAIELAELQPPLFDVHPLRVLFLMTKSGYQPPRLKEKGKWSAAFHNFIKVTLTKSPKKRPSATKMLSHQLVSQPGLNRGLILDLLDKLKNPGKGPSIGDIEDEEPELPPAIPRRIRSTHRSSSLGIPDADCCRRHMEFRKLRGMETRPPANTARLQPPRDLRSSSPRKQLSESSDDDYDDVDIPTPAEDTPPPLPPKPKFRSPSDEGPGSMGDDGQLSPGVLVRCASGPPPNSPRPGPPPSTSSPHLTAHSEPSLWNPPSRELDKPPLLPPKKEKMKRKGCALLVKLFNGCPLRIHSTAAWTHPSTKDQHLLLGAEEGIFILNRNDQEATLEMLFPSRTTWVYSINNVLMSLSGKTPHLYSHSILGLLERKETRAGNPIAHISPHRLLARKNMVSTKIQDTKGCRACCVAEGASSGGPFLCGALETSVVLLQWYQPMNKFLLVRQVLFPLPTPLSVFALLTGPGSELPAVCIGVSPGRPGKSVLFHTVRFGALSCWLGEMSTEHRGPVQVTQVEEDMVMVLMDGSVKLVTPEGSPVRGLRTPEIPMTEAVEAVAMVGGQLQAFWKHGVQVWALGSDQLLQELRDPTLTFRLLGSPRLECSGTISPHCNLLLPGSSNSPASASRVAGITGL

In the case of `C/C(Nc1ccn(C)n1)=C1/C(=O)Nc2cnc(-c3cncc(N)c3C)cc21` [Example 140, (Z)-5-(5-Amino-4-methylpyridin-3-yl)-3-(1-((1-methyl-1H-pyrazol-3-yl)amino)ethylidene)-1H-pyrrolo[2,3-c]pyridin-2(3H)-one], the inhibition at 1 µM stood at 79.8%, the inhibition at 10 µM turned out to be 91.3% and the IC50 is below 50 nM.

As for `CCOc1cccc(F)c1-c1cc2c(cn1)NC(=O)/C2=C(/C)Nc1ccc(N2CCOCC2)nc1` [Example 37, (Z)-5-(2-Ethoxy-6-fluorophenyl)-3-(1-((6-morpholinopyridin-3-yl)amino)ethylidene)-1H-pyrrolo[2,3-c]pyridin-2(3H)-one], the inhibition at 1 µM was determined as 84.4%, the inhibition at 10 µM came to 91.2% and the IC50 was 50 to 100 nM.

Consider `COc1ccncc1-c1cc2c(cn1)NC(=O)/C2=C(/C)Nc1ccn(C(C)(C)C#N)n1` [Example 95, (Z)-2-(3-((1-(5-(4-Methoxypyridin-3-yl)-2-oxo-1H-pyrrolo[2,3-c]pyridin-3(2H)-ylidene)ethyl)amino)-1H-pyrazol-1-yl)-2-methylpropanenitrile], for which the inhibition at 1 µM is 75.5%, the inhibition at 10 µM turned out to be 75.7% and the IC50 is below 50 nM.

On to `COCCn1cc(N/C(C)=C2\C(=O)Nc3cnc(-c4cnccc4C)cc32)cn1` [Example 60, (Z)-3-(1-((1-(2-Methoxyethyl)-1H-pyrazol-4-yl)amino)ethylidene)-5-(4-methylpyridin-3-yl)-1H-pyrrolo[2,3-c]pyridin-2(3H)-one], for which the inhibition at 1 µM worked out at 74%, the inhibition at 10 µM was found to be 72.7% and the concentration for half-maximal inhibition (IC50) is below 50 nM.

For `C/C(Nc1cc2n(n1)CCOC2)=C1/C(=O)Nc2cnc(-c3cc(F)ccc3C)cc21` [Example 218, (Z)-3-(1-((6,7-Dihydro-4H-pyrazolo[5,1-c][1,4]oxazin-2-yl)amino)ethylidene)-5-(5-fluoro-2-methylphenyl)-1H-pyrrolo[2,3-c]pyridin-2(3H)-one], the inhibition at 1 µM came out at 77.7% and the concentration for half-maximal inhibition (IC50) was below 50 nM.

As to `CNC(=O)Cn1ccc(N/C(C)=C2\C(=O)Nc3cnc(-c4cnccc4C)cc32)n1` [Example 114], the inhibition at 1 µM is 73.3%, the inhibition at 10 µM is 75.9% and the IC50 was below 50 nM.

On to `C/C(Nc1cnn(C)c1)=C1/C(=O)Nc2cnc(-c3ccc(F)cc3F)cc21` [Example 24, (Z)-5-(2,4-Difluorophenyl)-3-(1-((1-methyl-1H-pyrazol-4-yl)amino)ethylidene)-1H-pyrrolo[2,3-c]pyridin-2(3H)-one], for which the inhibition at 1 µM was 70.9%, the inhibition at 10 µM was 79.7% and the IC50 lay within 100 to 500 nM.

Consider `C/C(Nc1cnn(CC(F)F)c1)=C1/C(=O)Nc2cnc(-c3cnccc3C)cc21` [Example 61, (Z)-3-(1-((1-(2,2-Difluoroethyl)-1H-pyrazol 4-yl)amino)ethylidene)-5-(4-methylpyridin-3-yl)-1H pyrrolo[2,3-c]pyridin-2(3H)-one], for which the inhibition at 1 µM was 71.6%, the inhibition at 10 µM is 81.3% and the IC50 is below 50 nM.

Turning to `C/C(Nc1cn(C)nc1C)=C1/C(=O)Nc2cnc(-c3cnccc3C)cc21` [Example 135, (Z)-3-(1-((1,3-Dimethyl-1H-pyrazol-4-yl)amino)ethylidene)-5-(4-methylpyridin-3-yl)-1H-pyrrolo[2,3-c]pyridin-2(3H)-one], the inhibition at 1 µM is 78.5%, the inhibition at 10 µM stood at 83.9% and the IC50 lay in the range of 50 to 100 nM.

As to `C/C(Nc1ccn(C2(C#N)CC2)n1)=C1/C(=O)Nc2cnc(-c3cnccc3C)cc21` [Example 102, (Z)-1-(3-((1-(5-(4-Methylpyridin-3-yl)-2-oxo-1H-pyrrolo[2,3-c]pyridin-3(2H)-ylidene)ethyl)amino)-1H-pyrazol-1-yl)cyclopropanecarbonitrile], the inhibition at 1 µM turned out to be 81.6%, the inhibition at 10 µM was 89.7% and the IC50 is below 50 nM.

Consider `CC/C(Nc1cnn(C)c1)=C1/C(=O)Nc2cnc(-c3cnccc3C)cc21` [Example 47, (Z)-3-(1-((1-Methyl-1H-pyrazol-4-yl)amino)propylidene)-5-(4-methylpyridin-3-yl)-1H-pyrrolo[2,3-c]pyridin-2(3H)-one], for which the inhibition at 1 µM worked out at 83.5%, the inhibition at 10 µM is 82.5% and the 50% inhibitory concentration (IC50) was below 50 nM.

For the compound `C/C(Nc1ccn(C)n1)=C1/C(=O)Nc2cnc(-c3cnccc3C)cc21` [Example 54, (Z)-3-(1-((1-methyl-1H-pyrazol-3-yl)amino)ethylidene)-5-(4-methylpyridin-3-yl)-1H-pyrrolo[2,3-c]pyridin-2(3H)-one], the inhibition at 1 µM was 88.5%, the inhibition at 10 µM was found to be 86.1% and the IC50 was below 50 nM.

Consider `CC/C(Nc1cnn(C)c1)=C1/C(=O)Nc2ccc(-c3c(F)cccc3OC)cc21` [Example 17, (Z)-5-(2-Fluoro-6-methoxyphenyl)-3-(1-((1-methyl-1H-pyrazol-4-yl)amino)propylidene)indolin-2-one], for which the inhibition at 1 µM is 85.7%, the inhibition at 10 µM is 83.3% and the half-maximal inhibitory concentration (IC50) was below 50 nM.

As for `C/C(Nc1cc(C)n(CCC(C)(C)O)n1)=C1/C(=O)Nc2cnc(-c3cnccc3C)cc21` [Example 183, (Z)-3-(1-((1-(3-Hydroxy-3-methylbutyl)-5-methyl-1H-pyrazol-3-yl)amino)ethylidene)-5-(4-methylpyridin-3-yl)-1H-pyrrolo[2,3-c]pyridin-2(3H)-one], the inhibition at 1 µM was 72.5%, the inhibition at 10 µM stood at 79.5% and the IC50 was below 50 nM.

As to `COc1cccc(F)c1-c1ccc2c(c1)/C(=C(\C)Nc1ccn(C)n1)C(=O)N2` [Example 18, (Z)-5-(2-Fluoro-6-methoxyphenyl)-3-(1-((1-methyl-1H-pyrazol-3-yl)amino)ethylidene)indolin-2-one], the inhibition at 1 µM came out at 89.8%, the inhibition at 10 µM worked out at 85.4% and the IC50 was below 50 nM.

For `C/C(Nc1ccn(C)n1)=C1/C(=O)Nc2cnc(-c3cncc4c3OCC(=O)N4)cc21` [Example 138, (Z)-8-(3-(1-((1-Methyl-1H-pyrazol-3-yl)amino)ethylidene)-2-oxo-2,3-dihydro-1H-pyrrolo[2,3-c]pyridin-5-yl)-2H-pyrido[4,3-b][1,4]oxazin-3(4H)-one], the inhibition at 1 µM stood at 90.7% and the concentration for half-maximal inhibition (IC50) was below 50 nM.

Consider `C/C(Nc1cnn(C[C@H](C)O)c1)=C1/C(=O)Nc2cnc(-c3cnccc3C)cc21` [Example 156, (S,Z)-3-(1-((1-(2-Hydroxypropyl)-1H-pyrazol-4-yl)amino)ethylidene)-5-(4-methylpyridin-3-yl)-1H-pyrrolo[2,3-c]pyridin-2(3H)-one], for which the inhibition at 1 µM was 60.6%, the inhibition at 10 µM came to 80% and the concentration for half-maximal inhibition (IC50) fell in the range of 50 to 100 nM.

For `C/C(Nc1cnn(C[C@@H](C)O)c1)=C1/C(=O)Nc2cnc(-c3cnccc3C)cc21` [Example 153, (R,Z)-3-(1-((1-(2-Hydroxypropyl)-1H-pyrazol-4-yl)amino)ethylidene)-5-(4-methylpyridin-3-yl)-1H-pyrrolo[2,3-c]pyridin-2(3H)-one], the inhibition at 1 µM was 72.5%, the inhibition at 10 µM is 80.9% and the half-maximal inhibitory concentration (IC50) was below 50 nM.

For the compound `C/C(Nc1ccc(OC2CCN(C(=O)C3CC3)CC2)nc1)=C1/C(=O)Nc2cnc(-c3cnccc3C)cc21` [Example 177, (Z)-3-(1-((6-((1-(Cyclopropanecarbonyl)piperidin-4-yl)oxy)pyridin-3-yl)amino)ethylidene)-5-(4-methylpyridin-3-yl)-1H-pyrrolo[2,3-c]pyridin-2(3H)-one], the inhibition at 1 µM came out at 69.4%, the inhibition at 10 µM was 66.6% and the IC50 was below 50 nM.

Turning to `COc1cccc(F)c1-c1cc2c(cn1)NC(=O)/C2=C(/C)Nc1cnn(C(C)(C)C#N)c1` [Example 82, (Z)-2-(4-((1-(5-(2-Fluoro-6-methoxyphenyl)-2-oxo-1H-pyrrolo[2,3-c]pyridin-3(2H)-ylidene)ethyl)amino)-1H-pyrazol-1-yl)-2-methylpropanenitrile], the inhibition at 1 µM was 70.6%, the inhibition at 10 µM worked out at 79.9% and the half-inhibitory concentration (IC50) was below 50 nM.

On to `C/C(Nc1cc(C)n(CC(F)F)n1)=C1/C(=O)Nc2cnc(-c3cnccc3C)cc21` [Example 170, (Z)-3-(1-((1-(2,2-Difluoroethyl)-5-methyl-1H-pyrazol-3-yl)amino)ethylidene)-5-(4-methylpyridin-3-yl)-1H-pyrrolo[2,3-c]pyridin-2(3H)-one], for which the inhibition at 1 µM came to 70.1%, the inhibition at 10 µM was 70.3% and the half-maximal inhibitory concentration (IC50) is below 50 nM.

For the compound `C/C(Nc1cnn(CCN2CCOCC2)c1)=C1/C(=O)Nc2cnc(-c3cnccc3C)cc21` [Example 87, (Z)-5-(4-Methylpyridin-3-yl)-3-(1-((1-(2-morpholinoethyl)-1H-pyrazol-4-yl)amino)ethylidene)-1H-pyrrolo[2,3-c]pyridin-2(3H)-one], the inhibition at 1 µM amounted to 83.6%, the inhibition at 10 µM came to 84.8% and the concentration for half-maximal inhibition (IC50) is below 50 nM.

Regarding `C/C(Nc1ncc(C)s1)=C1/C(=O)Nc2cnc(-c3c(C)cccc3F)cc21` [Example 205, (Z)-5-(2-Fluoro-6-methylphenyl)-3-(1-((5-methylthiazol-2-yl)amino)ethylidene)-1H-pyrrolo[2,3-c]pyridin-2(3H)-one], the inhibition at 1 µM is 73.3% and the IC50 is below 50 nM.

In the case of `C/C(Nc1cnn(C(F)F)c1)=C1/C(=O)Nc2cnc(-c3cnccc3C)cc21` [Example 66, (Z)-3-(1-((1-(Difluoromethyl)-1H-pyrazol-4-yl)amino)ethylidene)-5-(4-methylpyridin-3-yl)-1H-pyrrolo[2,3-c]pyridin-2(3H)-one], the inhibition at 1 µM came out at 74.1%, the inhibition at 10 µM turned out to be 76.2% and the half-maximal inhibitory concentration (IC50) is below 50 nM.

These data come from patent publication US20230009626A1 (ICHNOS SCIENCES S.A., priority 2018, published 2023).
